Data taken from patent publication US20240376176A1 (priority 2021, published 2024).
Counter-ions that a name gives are not always drawn.

How the values were obtained:
[1] = system: sciatic nerves and adjacent tissues; details: rat, in vivo
[2] = biological target: natural sodium channel proteins; details: cited from earlier work
sciatic nerve = details: rat, in vivo

Row | Structure (SMILES) | Inflammation Score (range) Day 4 [1] | Inflammation Score (range) Day 14 [1] | Myotoxicity Score (range) Day 4 [1] | Myotoxicity Score (range) Day 14 [1] | Kd [2] | Duration of nerve block (sciatic nerve)
1 | NC1=N[C@H](O)[C@H]2[C@H]3O[C@]4(O)O[C@@H]([C@@H](O)[C@@]2(N1)[C@@H]4O)[C@]3(O)CO [Free TTX, tetrodotoxin] | 0.5 | 0 (0-1.0) | 0 (0-1.0) | 0 (0-1.0) | ~1.3 nM | 
2 | CCCCN1CCCCC1C(=O)Nc1c(C)cccc1C (stereo not drawn) [Free Bup, bupivacaine hydrochloride] |  |  |  |  |  | 2.4 ± 0.3 h
